Molecules are shown by their SMILES. Read-outs that look alike come from different tables or passages of the source.

Data set [1] concerns Lamp1-GFP/ATG5-KO MEFs. Briefly: Evaluation of activity to induce alternative autophagy (fluorescent bright spots due to aggregation of Lamp1-GFP). It counts as cell-based, mouse. The note with it: for aggregation of Lamp1-GFP, visually determined: concentrations of 10 μM or higher (10 to 50 μM), 5 hours. As for the experimental part: First, by using a retrovirus, a gene for expression of a Lamp1-GFP fusion protein (also referred to as “Lamp1-GFP”) was introduced into ATG5-deficient mouse embryonic fibroblasts (also referred to as “ATG5-KO MEFs”). Then, a cell with high expression of Lamp1-GFP was cloned and prepared as Lamp1-GFP/ATG5-KO MEFs.
The ATG5-KO MEFs were prepared by introducing a gene for expression of SV40T antigen into MEFs established from an ATG5-deficient C57/B6J mouse at a fetal age of 14.5 days by an electroporation method using an Nucleofector system (manufactured by amaxa) for immortalization. In addition, the retrovirus was prepared by introducing an MSCV-Lamp1-GFP (zeocin resistant) vector into plat E cells, which were retrovirus packaging cells.
To the Lamp1-GFP/ATG5-KO MEFs seeded at 1×10^4/96 wells on the preceding day, each of the test compounds was added at a final concentration of 50 μM, and the Lamp1-GFP/ATG5-KO MEFs were cultured at 37° C. under 10% CO2 for 5 hours.
Then, for observation, Hoechst 33342 (manufactured by invitrogen) was added at a final concentration of 1 ng/ml to each culture liquid, followed by incubation for 5 minutes. Then, the culture liquid was replaced with 100 μl of HBSS. Subsequently, five visual fields per well were photographed at random with IN CELL ANALYZER 1000 (manufactured by GE Healthcare).
Then, the thus obtained novel benzothiophene compounds (TMD-459 and TMD-460) were evaluated for the ability to induce alternative autophagy by the same method as that described in Example 1. Note that, in Example 10, each of the compounds was added to culture liquids at final concentrations of 10, 20, 30, 40, and 50 μM. In addition, compound #9 was also added as a reference example to culture liquids at the above-described concentrations. Then, 5 hours after the addition of each of these compounds, five visual fields per each well were photographed at random with IN CELL ANALYZER 1000, and the presence or absence of fluorescent bright spots due to the aggregation of Lamp1-GFP was visually determined.

For data set [2], the system named is tumor cell line 53T implanted in wild-type C57/B6J mice. Briefly: In vivo anticancer activity, tumor volume in cancer-bearing mice implanted with 53T. Also noted: species or system mouse. The procedure:
A tumor cell line (also referred to as “53T”) established from a tumor developed spontaneously in a p53 deficient C57/B6J mouse was implanted at 4 sites in the ventral skin of each of wild-type C57/B6J mice at 3×10^5 cells per site. From the following day, the compounds were administered to the mice every other day five times in total. The concentration of each compound was 0.4 μmol/(50 μl DMSO+100 μl PBS)/mouse/administration. In addition, a negative control group to which only the same amount of DMSO was administered was prepared. Then, 21 days (3 weeks) after the implantation, the tumor diameters of the mice were measured, and the tumor volumes were calculated, and compared with that of the control group.
The 53T was implanted at 4 sites in the ventral skin of each of wild-type C57/B6J mice at 3×10^5 cells per site. From the following day, 0 (DMSO alone), 5, 10, or 20 μM of each of compounds #09 and #13 was administered to six mice every other day five times in total. Then, 21 days (3 weeks) after the implantation, the tumor diameters of the mice were measured, and the tumor volumes were calculated. FIGS. 9 and 11 show the obtained results. Note that, in FIGS. 9 and 11, each point indicates the average volume of the tumors at the four sites in a mouse.
In addition, in the same manner as described above, the 53T was implanted in mice, and, from the following day, each of compound #09 at a concentration of 10 μM and compound #13 at a concentration of 5 μM was administered to four cancer-bearing mice every other day five times in total. Then, 21 days (3 weeks) after the implantation, the tumor diameters of the mice were measured, and the tumor volumes were calculated. In addition, a negative control to which DMSO was administered was also prepared, and the tumor volume was calculated in the same manner. In addition, these experiments were conducted three times independently of each other. FIGS. 10 and 12 show the obtained results. Note that in FIGS. 10 and 12, each point indicates the average volume of the tumors at the four sites in a mouse.

Data set [3] has as its system p53-deficient cancer cells (53T). As to the kind of experiment: Alternative autophagy-inducing activity in tumor cell line (Lamp2 aggregation, fluorescence and electron microscope). The class given is cell-based, mouse. The note with it: 20 μM, six hours, FIGS. 3 to 6. As for the experimental part:
In the same manner as in the above-described <Evaluation of Alternative Autophagy-Inducing Activity> using the Lamp1-GFP/ATG5-KO MEFs, each of the compounds #09 and #13 was added at a final concentration of 20 μM to a culture liquid of the tumor cell line (also referred to as “53T”) established from the tumor developed spontaneously in the p53 deficient C57/B6J mouse. […] Note that, in this evaluation, Lamp2 was used instead of Lamp1. FIGS. 3 to 6 show the obtained results.

The test system of data set [4] is mouse tumor cell line 53T. As to the kind of experiment: Evaluation of in vitro anticancer activity (Cell titer blue, cell death induction rate). The class given is cell-based. Also noted: key: (CTB of negative control − CTB treated)/CTB of negative control. The note with it: 24 hours, CTB. As for the experimental part:
First, the mouse tumor cell line 53T was seeded at 2×10^4/well on 96 well plates. Then, on the following day, each of compounds #09 and #13 dissolved in DMSO was added at a final concentration of 1, 5, 10, 20, or 50 μM. In addition, a negative control to which only DMSO was added was prepared. Subsequently, the cells were cultured at 37° C. under 10% CO2 for 24 hours. Then, by using Cell titer blue (CTB) (manufactured by Promega) according to the attached protocol, the amount of the fluorescence of each well of the cells 10 minutes after the addition of the CTB reagent was measured as a CTB measurement value of the cells brought into contact with compound #09 or #13. On the basis of such measurement values, the cell death induction rate of each of compounds #09 and #13 was calculated according to the following formula. Cell death induction rate=(CTB measurement value of negative control−CTB measurement value of cells to which compound was added)/CTB measurement value of negative control
(In general: Resazurin is reduced to fluorescent resorufin, in cell work by metabolically active cells.)

Data set [5] concerns primary cultured fibroblasts (normal cells). As to the kind of experiment: Activity to induce cell death specific to cancer cells: normal cells (CTB survival rate). Particulars: 20 μM, FIGS. 7 and 8. The class given is cell-based. The procedure:
CTB measurement values were obtained in the same manner as in the above-described <Evaluation of In Vitro Anticancer Activity> by adding each of compounds #09 and #13 at a final concentration of 20 μM to culture liquids of primary cultured fibroblasts (normal cells) and fibroblasts (cancer cells) immortalized with SV40. On the basis of the obtained CTB measurement values, the cell survival rate was calculated over time. Note that the cell survival rate was defined as 1-cell death induction rate. FIGS. 7 and 8 show the obtained results.

Data set [6] has as its system fibroblasts (cancer cells) immortalized with SV40. As to the kind of experiment: Activity to induce cell death specific to cancer cells: cancer cells (CTB survival rate). It counts as cell-based. Particulars: 20 μM, FIGS. 7 and 8.
The test system of data set [7] is 53T implanted in wild-type C57/B6J mice. Briefly: Survival rate of cancer-bearing mice. It counts as in vivo, mouse. The note with it: 10 μM every other day 5 times; compared with etoposide at 10 μM, FIGS. 13 to 15.
Data set [8] has as its system MEFs immortalized with SV40T antigen. The note with it: 24 hours, CTB.
Data set [9] shares this test system. Briefly: cells. The note with it: Mus musculus, 24 h, read-out: induced cell death of the MEFs immortalized with SV40T antigen.

For `CCOC(=O)c1c(NC(C)=O)sc2c(OCCN(CC)CC)c(Br)ccc12` [Compound #09, Ethyl 2-Acetylamino-6-bromo-7-[2-(N,N-diethylamino)ethyloxy]benzo[b]thiophene-3-carboxylate], the “alternative autophagy-inducing activity (FIG. 16)” value in [1] (Example 9, same method as Example 1) is “having alternative autophagy-inducing activity”. The “aggregation of Lamp1-GFP, visually determined” value in data set [1] is reported as “aggregation of the Lamp1-GFP was observed in all the cells”. Moreover, the “dose dependence of in vivo anticancer activity (FIG. 9)” value in data set [2] (0, 5, 10, or 20 μM) was “dose-dependent activity”. Also, the “in vivo anticancer activity (tumor volume vs control group, FIG. 2)” value in data set [2] (0.4 μmol/mouse/administration, every other day five times, 21 days after implantation) is listed as “selected as compounds having in vivo anticancer activity”. Further, the “in vivo anticancer activity (tumor volume, FIGS. 9 to 12)” value in data set [2] (5, 10, or 20 μM every other day five times, 21 days after implantation) is reported as “exhibited in vivo anticancer activity”. Also, the “anticancer activity (FIG. 17, tumor volumes in cancer-bearing mice)” value in data set [2] (Example 9) was “had anticancer activity”. Moreover, the “aggregation of Lamp2 and occurrence of autophagy” value in data set [3] is “aggregation of the lysosomal protein Lamp2 and occurrence of autophagy were observed”. For the same molecule, the “Cell death induction rate” value is listed as 0 in data set [4] (1 μM); 0.07741 in [4] (5 μM); 0.1725 in data set [4] (10 μM); 0.6305 in [4] (20 μM); 0.9456 in data set [4] (50 μM); 0.7426 in [8] (10 μM). The “Cell death induction rate” value was 0.887 in data set [8] (20 μM), 0.89 in data set [8] (30 μM), 0.8913 in [8] (40 μM) and 0.8848 in data set [8] (50 μM). Besides, the “cell death of normal cells (cell survival rate over time)” value in data set [5] is recorded as “hardly induced cell death of the normal cells”. For the same molecule, the “cell death-inducing activity on cancer cells (cell survival rate over time)” value in data set [6] is given as “exhibited remarkable cell death-inducing activity on the cancer cells”. Besides, in [7], the “improvement effect on the survival rate of the cancer-bearing mice” value is given as “higher improvement effect on the survival rate of the cancer-bearing mice than etoposide”. Also, in data set [9], the mortality at 20 µM is ≥ 80%.
In the case of `CCOC(=O)c1c(N)sc2c(OCCN(CC)CC)c(Br)ccc12` [TMD-460, Ethyl 2-Amino-7-[2-(N,N-diethylamino)ethyloxy]-6-bromobenzo[b]thiophene-3-carboxylate], in data set [1], the “aggregation of Lamp1-GFP, visually determined” value is recorded as “aggregation of the Lamp1-GFP was observed in all the cells”. The “Cell death induction rate” value in data set [8] (10 μM) is 0.7701; in data set [8] (20 μM), 0.875; in [8] (30 μM), 0.8885; in [8] (40 μM), 0.8902; in data set [8] (50 μM), 0.8919. For the same molecule, in data set [9], the mortality at 20 µM was ≥ 80%.

These data come from US10954222B2, “Benzothiophene compound, alternative autophagy-inducing agent and anticancer agent including the compound as active ingredient, and method for screening for compound having anticancer activity” (National University Corporation Tokyo Medical and Dental …, priority 2012, dated 2021).
